Assay results as given in US20040147567A1, “Arginine derivatives” (priority 2001, published 2004).

Molecular target: T1, human MC4 receptor (Homo sapiens, UniProt P32245)
T1 construct: purchased Biolinks Co; host or cells: HEK-293 cell membranes
Experiment: MC4 receptor binding assay ([125I]Nle4-D-Phe7-α-MSH displacement)
Conditions: HEK-293 cell membranes expressing the human MC4 receptor; [125I]Nle4-D-Phe7-α-MSH 0.2 nM; 25° C., 120 minutes
Protocol: Experiment 1 [MC4 Receptor Binding Assay]
MC4 receptor binding assay was carried out according to the method described in Pharmacology & Toxicology, 79, 161-165, 1996. HEK-293 cell membranes expressing the human MC4 receptor were purchased from Biolinks Co. The cell membranes were homogenized in a 50 mM Tris hydrochloric acid buffer solution (pH 7.4) containing 2 mM ethylenediamine tetraacetic acid, 10 mM calcium chloride and 100 μM phenylmethanesulfonylfluoride. The homogenate was centrifuged at 48,000×g for 20 minutes at 4° C. The precipitate obtained by centrifugation was again homogenized in the same buffer solution, and the homogenate was centrifuged at 48,000×g for 20 minutes at 4° C. This procedure was repeated twice. The precipitate was suspended in 50 mM Tris hydrochloric acid buffer solution (pH 7.4) containing 2 mM ethylenediamine tetraacetic acid, 10 mM calcium chloride, 100 μM phenylmethanesulfonylfluoride and 0.1% bovine serum albumin to adjust to a protein concentration of 100 μg/ml to give a crude membrane preparation which was used for the binding assay. The crude membrane preparation (0.25 ml, 25 μg protein) was reacted with [^125I]Nle^4-D-Phe^7-α-MSH (final concentration; 0.2 nM) at 25° C. for 120 minutes. […] The radioactivity on the filter paper was measured in a gamma-counter. […] The IC50 value was calculated from the inhibition curve in the concentration of 10^−9-10^−5.

T1 sequence (P32245 whole entry): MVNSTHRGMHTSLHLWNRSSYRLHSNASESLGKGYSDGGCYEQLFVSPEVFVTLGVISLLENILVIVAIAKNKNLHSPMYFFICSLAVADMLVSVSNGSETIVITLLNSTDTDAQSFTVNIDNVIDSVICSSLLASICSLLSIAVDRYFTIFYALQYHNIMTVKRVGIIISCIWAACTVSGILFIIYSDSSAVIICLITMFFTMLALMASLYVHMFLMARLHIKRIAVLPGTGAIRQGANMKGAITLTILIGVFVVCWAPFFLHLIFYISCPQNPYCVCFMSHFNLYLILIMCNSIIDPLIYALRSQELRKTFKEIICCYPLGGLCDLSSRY

IC50: 690 nM
Structure (SMILES): CC(=O)N[C@H](Cc1cccc2ccccc12)C(=O)N[C@@H](CCCNC(=N)N)C(=O)N[C@H](Cc1ccc2ccccc2c1)C(N)=O [Compound 224]
